Results taken from patent US10821115B2, “Compounds that inhibit Mcl-1 protein” (priority 2017, dated 2020).
Read-outs that look alike come from different tables or passages of the source.

How the values were obtained:
[1] = biological target: recombinant human Mcl-1 (residues 171-327) / Bim interaction (Homo sapiens (Human), UniProt Q07820); assay: biochemical; assay type: binding; conditions: read-out: Mcl-1 HTRF IC50
[2] = system: human multiple myeloma cell line, OPM-2; assay: Cell viability assay (OPM-2 10 FBS), CellTiter-Glo; assay type: cell-based
In short: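 Steps: plate cells at 3000/well in 10% FBS growth medium, add serially diluted compound, incubate 16 h at 37 °C with 5% CO2, add detection reagent and read luminescence after 25 min. A 4-parameter logistic model gives IC50.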

[3] = TR-FRET, Mcl-1(171-327) / biotin-Bim (51-76)
[4] = Homo sapiens, OPM-2, 16 h, read-out: OPM-2 10% FBS IC50 IP, OPM-2 cells, 10% FBS, 16 h, CellTiter-Glo
[5] = 0.1 nM Mcl-1(171-327), 0.05 nM biotin-Bim (51-76)
[6] = Homo sapiens, OPM-2, 16 h, read-out: OPM-2 10% FBS IC50 IP, OPM-2 cells, 10% FBS, 16 h incubation
[7] = read-out: OPM-2 10% FBS IC50 IP, OPM-2 cells, 10% FBS, 16 h, CellTiter-Glo

Sequence of recombinant human Mcl-1 (residues 171-327) / Bim interaction (Q07820 171-327): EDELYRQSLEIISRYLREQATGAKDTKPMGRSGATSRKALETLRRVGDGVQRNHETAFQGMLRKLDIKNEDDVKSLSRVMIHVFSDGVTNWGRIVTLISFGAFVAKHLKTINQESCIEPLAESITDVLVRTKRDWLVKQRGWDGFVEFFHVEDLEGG

Structure (SMILES) | IC50 [1, 3] | IC50 [2, 4] | IC50 [1, 5] | IC50 [2, 6] | also measured
CO[C@@]1(CCN2CCN3CCOC[C@@H]3C2)/C=C/C[C@H](C)[C@@H](C)S(=O)(=O)NC(=O)c2ccc3c(c2)N(C[C@@H]2CC[C@H]21)C[C@@]1(CCCc2cc(Cl)ccc21)CO3 [Example 100429, (1S,3′R,6′R,7′S,8′E,11′S,12′R)-6-chloro-7′-(2-((9aS)-hexahydropyrazino[2,1-c][1,4]oxazin-8(1H)-yl)ethyl)-7′-methoxy-11′,12′-dimethyl-3,4-dihydro-2H,15′H-spiro[naphthalene-1,22′-[20]oxa[13]thia[1,14]diazatetracyclo [14.7.2.0~3,6~.0~19,24~]pentacosa[8,16,18,24]tetraen]-15′-one 13′,13′-dioxide] | 0.176 nM | 1420 nM | – | – | –
C[C@@H]1[C@@H](C)C/C=C/[C@](C)(OCCN2CC(F)(F)C2)[C@@H]2CC[C@H]2CN2C[C@@]3(CCCc4cc(Cl)ccc43)COc3ccc(cc32)C(=O)NS1(=O)=O [Example 100484, (1S,3′R,6′R,7′S,8′E,11′S,12′R)-6-chloro-7′-(2-(3,3-difluoro-1-azetidinyl)ethoxy)-7′,11′,12′-trimethyl-3,4-dihydro-2H,15′H-spiro[naphthalene-1,22′-[20]oxa[13]thia[1,14]diazatetracyclo [14.7.2.0~3,6~.0~19,24~]pentacosa[8,16,18,24]tetraen]-15′-one 13′,13′-dioxide] | 3.85 nM | 3370 nM | – | – | –
CO[C@@]1(CN2CCN(C(C)=O)CC2)/C=C/C[C@H](C)[C@@H](C)S(=O)(=O)NC(=O)c2ccc3c(c2)N(C[C@@H]2CC[C@H]21)C[C@@]1(CCCc2cc(Cl)ccc21)CO3 [Example 249, (1S,3′R,6′R,7′S,8′E,11′S,12′R)-7′-((4-acetyl-1-piperazinyl)methyl)-6-chloro-7′-methoxy-11′,12′-dimethyl-3,4-dihydro-2H,15′H-spiro[naphthalene-1,22′-[20]oxa[13]thia[1,14]diazatetracyclo [14.7.2.0~3,6~.0~19,24~]pentacosa[8,16,18,24]tetraen]-15′-one 13′,13′-dioxide] | – | – | 0.063 nM | 114 nM | –
C[C@@H]1[C@@H](C)C/C=C/[C@](O)(C2SCCCS2)[C@@H]2CC[C@H]2CN2C[C@@]3(CCCc4cc(Cl)ccc43)COc3ccc(cc32)C(=O)NS1(=O)=O [Example 100259, (1S,3′R,6′R,7′R,8′E,11′S,12′R)-6-chloro-7′-(1,3-dithian-2-yl)-7′-hydroxy-11′,12′-dimethyl-3,4-dihydro-2H,15′H-spiro[naphthalene-1,22′-[20]oxa[13]thia[1,14]diazatetracyclo [14.7.2.0~3,6~.0~19,24~]pentacosa[8,16,18,24]tetraen]-15′-one 13′,13′-dioxide] | 6.18 nM | 1250 nM | – | – | –
C[C@@H]1[C@@H](C)CCC[C@](O)(CC(=O)N(C)C(C)(C)C)[C@@H]2CC[C@H]2CN2C[C@@]3(CCCc4cc(Cl)ccc43)COc3ccc(cc32)C(=O)NS1(=O)=O (single isomer, unassigned) [Example 100143] | 1.87 nM | – | – | – | IC50 [2, 7]: 3270 nM
C[C@@H]1[C@@H](C)C[C@H]2CCC[C@](O)(C2)[C@@H]2CC[C@H]2CN2C[C@@]3(CCCc4cc(Cl)ccc43)COc3ccc(cc32)C(=O)NS1(=O)=O [Example 100062, (1S,3′R,6′R,7′S,11′R,13′S,14′R)-6-chloro-7′-hydroxy-13′,14′-dimethyl-3,4-dihydro-2H,17′H-spiro[naphthalene-1,24′-[22]oxa[15]thia[1,16]diazapentacyclo [16.7.2.1~7,11~.0~3,6~.0~21,26~]octacosa [18,20,26]trien]-17′-one 15′,15′-dioxide] | 4.25 nM | 9940 nM | – | – | –
COC[C@@H]1[C@@H](C)C/C=C/[C@@](CN2CCN(C3COC3)CC2)(OC)[C@@H]2CC[C@H]2CN2C[C@@]3(CCCc4cc(Cl)ccc43)COc3ccc(cc32)C(=O)NS1(=O)=O [Example 167, (1S,3′R,6′R,7′R,8′E,11′S,12′S)-6-chloro-7′-methoxy-12′-(methoxymethyl)-11′-methyl-7′-((4-(3-oxetanyl)-1-piperazinyl)methyl)-3,4-dihydro-2H,15′H-spiro[naphthalene-1,22′-[20]oxa[13]thia[1,14]diazatetracyclo [14.7.2.0~3,6~.0~19,24~]pentacosa[8,16,18,24]tetraen]-15′-one 13′,13′-dioxide] | – | – | 0.086 nM | 52 nM | –
CO[C@@]1(CN2CCN(c3ccccc3)CC2)/C=C/C[C@H](C)[C@@H](C)S(=O)(=O)NC(=O)c2ccc3c(c2)N(C[C@@H]2CC[C@H]21)C[C@@]1(CCCc2cc(Cl)ccc21)CO3 [Example 251, (1S,3′R,6′R,7′S,8′E,11′S,12′R)-6-chloro-7′-methoxy-11′,12′-dimethyl-7′-((4-phenyl-1-piperazinyl)methyl)-3,4-dihydro-2H,15′H-spiro[naphthalene-1,22′-[20]oxa[13]thia[1,14]diazatetracyclo [14.7.2.0~3,6~.0~19,24~]pentacosa[8,16,18,24]tetraen]-15′-one 13′,13′-dioxide] | – | – | 2.26 nM | 3870 nM | –
C[C@@H]1[C@@H](C)CCC[C@](O)(CC#N)[C@@H]2CC[C@H]2CN2C[C@@]3(CCCc4cc(Cl)ccc43)COc3ccc(cc32)C(=O)NS1(=O)=O (single isomer, unassigned) [Example 100080] | 0.61 nM | 818 nM | – | – | –
C[C@@H]1[C@@H](C)CCCC2(CN3CCOC[C@H]3CO2)[C@@H]2CC[C@H]2CN2C[C@@]3(CCCc4cc(Cl)ccc43)COc3ccc(cc32)C(=O)NS1(=O)=O (stereo partly drawn) [Example 400, (1S,3′R,6′R,7′S,9a″S,11′S,12′R)-6-chloro-11′,12′-dimethyl-3,4,6″,7″,9″,9a″-hexahydro-1″H,2H,15′H-dispiro[naphthalene-1,22′-[20]oxa[13]thia[1,14]diazatetracyclo[14.7.2.0-3,6˜.0˜19,24˜]pentacosa[16,18,24]triene-7′,3″-[1,4]oxazino[3,4-c][1,4]oxazin]-15′-one 13′,13′-dioxide] | – | – | 1.1 nM | – | IC50 ([2]; read-out: OPM-2 10% FBS IC50 IP, OPM-2 cells, 10% FBS, 16 h incubation): 2870 nM
C[C@@H]1[C@@H](C)CCC[C@](O)(CC(=S)N(C)C)[C@@H]2CC[C@H]2CN2C[C@@]3(CCCc4cc(Cl)ccc43)COc3ccc(cc32)C(=O)NS1(=O)=O (single isomer, unassigned) [Example 100173] | 0.539 nM | – | – | – | IC50 [2, 7]: 379 nM
C[C@@H]1[C@@H](C)C/C=C/[C@](O)(c2cccnc2)[C@@H]2CC[C@H]2CN2C[C@@]3(CCCc4cc(Cl)ccc43)COc3ccc(cc32)C(=O)NS1(=O)=O (single isomer, unassigned) [Example 100183] | 1.34 nM | 2240 nM | – | – | –
COCCN(C)C(=O)C[C@]1(OC)/C=C/C[C@H](C)[C@@H](C)S(=O)(=O)NC(=O)c2ccc3c(c2)N(C[C@@H]2CC[C@H]21)C[C@@]1(CCCc2cc(Cl)ccc21)CO3 [Example 100005, 2-((1 S,3′R,6′R,7′S,8′E,11′S, 12′R)-6-chloro-7′-methoxy-11′,12′-dimethyl-13′,13′-dioxido-15′-oxo-3,4-dihydro-2H-spiro[naphthalene-1,22′-[20]oxa[13]thia[1,14]diazatetracyclo[14.7.2.0-3,6˜.0˜19,24˜]pentacosa[8,16,18,24]tetraen]-7′-yl)-N-(2-methoxyethyl)-N-methylacetamide] | 0.091 nM | 62 nM | – | – | –
CO[C@@]1(CN2CCn3ccnc3C2)/C=C/C[C@H](C)[C@@H](C)S(=O)(=O)NC(=O)c2ccc3c(c2)N(C[C@@H]2CC[C@H]21)C[C@@]1(CCCc2cc(Cl)ccc21)CO3 [Example 201, (1S,3′R,6′R,7′S,8′E,11′S,12′R)-6-chloro-7′-(5,6-dihydroimidazo[1,2-a]pyrazin-7(8H)-ylmethyl)-7′-methoxy-11′,12′-dimethyl-3,4-dihydro-2H,15′H-spiro[naphthalene-1,22′-[20]oxa[13]thia[1,14]diazatetracyclo [14.7.2.0~3,6~.0~19,24~]pentacosa[8,16,18,24]tetraen]-15′-one 13′,13′-dioxide] | – | – | 0.119 nM | 244 nM | –
CO[C@@]1(C#CCN2CCN3CCOC[C@@H]3C2)/C=C/C[C@H](C)[C@@H](C)S(=O)(=O)NC(=O)c2ccc3c(c2)N(C[C@@H]2CC[C@H]21)C[C@@]1(CCCc2cc(Cl)ccc21)CO3 [Example 100518, (1S,3′R,6′R,7′S,8′E,11′S,12′R)-6-chloro-7′-(3-((9aS)-hexahydropyrazino[2,1-c][1,4]oxazin-8(1H)-yl)-1-propyn-1-yl)-7′-methoxy-11′,12′-dimethyl-3,4-dihydro-2H,15′H-spiro[naphthalene-1,22′-[20]oxa[13]thia[1,14]diazatetracyclo [14.7.2.0~3,6~.0~19,24~]pentacosa[8,16,18,24]tetraen]-15′-one 13′,13′-dioxide] | 0.427 nM | 668 nM | – | – | –
CO[C@@]1(CN2CCN(C3(C)COC3)CC2)/C=C/C[C@H](C)[C@@H](C)S(=O)(=O)NC(=O)c2ccc3c(c2)N(C[C@@H]2CC[C@H]21)C[C@@]1(CCCc2cc(Cl)ccc21)CO3 [Example 268, (1S,3′R,6′R,7′S,8′E,11′S,12′R)-6-chloro-7′-methoxy-11′,12′-dimethyl-7′-((4-(3-methyl-3-oxetanyl)-1-piperazinyl)methyl)-3,4-dihydro-2H,15′H-spiro[naphthalene-1,22′-[20]oxa[13]thia[1,14]diazatetracyclo [14.7.2.0~3,6~.0~19,24~]pentacosa[8,16,18,24]tetraen]-15′-one 13′,13′-dioxide] | – | – | 0.065 nM | 72 nM | –
